From PMC3574189 (Journal of medicinal chemistry, 2013)

Tests used:
[1] = system: PRI54M (PR with I54M mutation); assay: Fluorescence assay of HIV-1 protease inhibition; format: biochemical; settings: PRI54M vs PRWT
[2] = system: PRV82A (PR with V82A mutation); assay: Fluorescence assay of HIV-1 protease inhibition; format: biochemical; settings: PRV82A vs PRWT
PRI50V = settings: mutant PRI50V; ref [22], [23]; cited from earlier work
PRD30N = settings: mutant PRD30N; ref [22], [23]; cited from earlier work

COc1ccc(S(=O)(=O)N(CC(C)C)C[C@@H](O)[C@H](Cc2ccccc2)NC(=O)O[C@H]2CO[C@H]3O[C@@H]4OCC[C@@H]4[C@H]32)cc1 [Compound 1, GRL-0519]
increased Ki relative to PRWT [1]: 6-7 fold
increased Ki relative to PRWT [2]: 6-7 fold

CC(C)CN(C[C@@H](O)[C@H](Cc1ccccc1)NC(=O)O[C@H]1CO[C@H]2OCC[C@H]21)S(=O)(=O)c1ccc(N)cc1 [DRV, darunavir]
Ki (PRI50V): ≤ 18 nM
Ki (PRD30N): 6.6 nM
